BindingDB's records for doi:10.1007/bf00168685 (Centre De Pharmacologie-Endocrinologie (Montpellier, France), 1992)

Biological target: T1, 5-hydroxytryptamine receptor 3A (Rattus norvegicus, UniProt P35563)
T1 sequence (P35563 whole entry): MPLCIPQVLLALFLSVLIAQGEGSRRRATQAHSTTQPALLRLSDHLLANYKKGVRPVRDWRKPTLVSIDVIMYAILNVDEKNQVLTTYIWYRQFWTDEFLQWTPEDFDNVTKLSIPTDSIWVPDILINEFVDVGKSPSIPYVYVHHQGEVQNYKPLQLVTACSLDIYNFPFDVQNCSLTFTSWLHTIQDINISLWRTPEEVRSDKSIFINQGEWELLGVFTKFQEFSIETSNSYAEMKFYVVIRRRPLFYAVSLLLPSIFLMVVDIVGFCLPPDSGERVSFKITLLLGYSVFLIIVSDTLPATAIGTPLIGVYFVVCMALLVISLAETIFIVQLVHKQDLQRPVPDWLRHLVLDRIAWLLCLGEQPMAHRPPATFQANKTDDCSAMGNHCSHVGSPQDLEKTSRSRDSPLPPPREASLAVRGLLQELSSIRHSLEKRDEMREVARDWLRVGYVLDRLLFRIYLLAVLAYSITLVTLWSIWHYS

## CN1C2CCC1CC(OC(=O)c1c[nH]c3ccccc13)C2 (stereo unspecified)
  Ki: 2.8 nM
